# Results taken from patent US9492468B2, “Methods and compositions for treatment of acute heart failure” (PERICOR THERAPEUTICS, INC., priority 2008, dated 2016).
# Assays:
# NT-ProBNP = assay: Plasma NT-proBNP, 6 hours infusion study; type: in vivo, dog; conditions: HF dogs n=6; for Plasma NT-ProBNP: iv 10 μg/kg/min constant infusion
# Protocol: (§1) Six heart failure dogs described in Example 1 were used. Studies using active drug and placebo were performed in each dog in random order a minimum of one week apart. After baseline hemodynamic, angiographic and echocardiographic measurements, GP-531 tartrate or placebo was administered as a continuous constant intravenous infusion for 6 hours. The dose of GP-531 tartrate was 10 μg/kg/min. Complete hemodynamic, angiographic and echocardiographic measurements were made during baseline, and at 1, 2, 3, 4, 5 and 6 hours after initiating drug infusion. In addition, myocardial oxygen consumption (MVO2) was measured at baseline and 4 and 6 hours after initiating drug or saline infusion. LV pressure-volume relationships (P-V Loops) were also measured at baseline and at 6 hours after initiating drug or saline infusion to assess load independent contractility and relaxation. Venous blood samples were obtained at baseline and hourly thereafter. Blood samples (at least […]) were centrifuged at 3000 rpm for 10 minutes and plasma withdrawn and placed in cryostorage tubes and stored upright at −20° C. until needed. Venous blood samples were used to evaluate plasma levels of troponin-I and plasma levels of n-terminal pro-brain natriuretic peptide (NT-proBNP).
# (§2) Plasma biomarkers were measured in all dogs at all study time points. Troponin I (TnI) was determined in plasma based on the principle of the double antibody sandwich enzyme-linked immunosorbent assay (ELISA) (Hirano, T., et al, Immunol Today 1990, 11:443-449) and NT-pro-BNP based on competitive ELISA (Bonow, R. O. Circulation 1996, 93:1946-1950). Both biomarkers were assayed using commercially available assay kits. Kits for NT-proBNP and TnI were purchased from ALPCO Diagnostics, Salem, N.H. Using standard curves and software, the concentration of each biomarker was expressed as ng/ml for TnI and fmol/ml for NT-proBNP.
# Troponin-I = assay: Plasma troponin-I, 6 hours infusion study; type: in vivo, dog; conditions: HF dogs n=6; for Plasma TnI: iv 10 μg/kg/min constant infusion
# Protocol: as §1, §2
# [1] = Octanol:water partition coefficient; type: physicochemical; conditions: read-out: Octanol: water partition coefficient (log P)
# Description: Administering a better absorbed more lipophilic prodrug, which is subsequently hydrolysed to GP531, achieves an increase in the systemic availability of GP531.
# A2 receptors = assay: Ligand status at adenosine A2 receptor; type: binding
# A3 receptors = target: T1, A3 receptors (Homo sapiens, UniProt P0DMS8); assay: Ligand status at adenosine A3 receptor; type: binding
# T1 sequence (P0DMS8 1-318): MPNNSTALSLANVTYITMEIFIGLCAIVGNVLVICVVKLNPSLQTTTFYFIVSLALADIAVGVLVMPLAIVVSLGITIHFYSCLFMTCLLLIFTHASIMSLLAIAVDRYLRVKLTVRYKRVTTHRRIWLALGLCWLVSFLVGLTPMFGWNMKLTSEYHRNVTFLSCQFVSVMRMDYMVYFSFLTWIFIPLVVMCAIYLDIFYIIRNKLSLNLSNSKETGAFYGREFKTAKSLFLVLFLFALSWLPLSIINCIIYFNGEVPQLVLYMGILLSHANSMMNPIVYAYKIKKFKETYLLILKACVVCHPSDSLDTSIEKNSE
# [2] = previous studies; cited from earlier work
smiles,measurement,setting,value
"NC(=O)c1ncn(C2OC(CNCc3ccccc3)C(O)C2O)c1N [GP-531, 5-amino-1-β-D-(5-benzylamino-5-deoxy-1-β-D-ribofuranosyl)imidazole-4 carboxamide]",Plasma NT-ProBNP,NT-ProBNP; 1 h,140 ± 13 fmol/mL
same,Plasma NT-ProBNP,NT-ProBNP; 2 h,131 ± 11 fmol/mL
same,Plasma NT-ProBNP,NT-ProBNP; 3 h,127 ± 12 fmol/mL
same,Plasma NT-ProBNP,NT-ProBNP; 4 h,134 ± 11 fmol/mL
same,Plasma NT-ProBNP,NT-ProBNP; 5 h,130 ± 10 fmol/mL
same,Plasma NT-ProBNP,NT-ProBNP; 6 h,122 ± 10 fmol/mL
same,Effect on plasma NT-proBNP,NT-ProBNP; iv 10 μg/kg/min for 6 h,significantly reduced
same,Plasma TnI,Troponin-I; 1 h,0.57 ± 0.02 pg/mL
same,Plasma TnI,Troponin-I; 2 h,0.58 ± 0.02 pg/mL
same,Plasma TnI,Troponin-I; 3 h,0.38 ± 0.03 pg/mL
same,Plasma TnI,Troponin-I; 4 h,0.43 ± 0.03 pg/mL
same,Plasma TnI,Troponin-I; 5 h,0.41 ± 0.03 pg/mL
same,Plasma TnI,Troponin-I; 6 h,0.42 ± 0.06 pg/mL
same,Effect on plasma troponin-I,Troponin-I; iv 10 μg/kg/min for 6 h,significantly reduced
same,logP,[1],-0.91
same,Ligand for A2 receptors,A2 receptors,has not been shown to be a ligand
same,Ligand for A3 receptors,A3 receptors,has not been shown to be a ligand
same,Metabolism,[2],not metabolized
same,Route of clearance,[2],cleared almost entirely intact in urine
